Experimental findings from patent US5560935A, “Physiologically active substances extracted from activated tissues” (Nippon Zoki Pharmaceutical Co., Ltd., priority 1993, dated 1996) are described below.

This assay deals with plasma kallikrein. As to the kind of experiment: Inhibition of the production of plasma kallikrein (kaolin-activated plasma, synthetic substrate). As to conditions: normal human plasma, kaolin activation, substrate D-Pro-Phe-Arg-p-nitroaniline. It counts as biochemical. As to the method:
The inhibitory action of the physiologically-active substance against the production of plasma kallikrein was measured according to a method described in Kiso to Rinsho, vol. 20, no. 17, pages 399-405 (1986).
Thus, a suspension of kaolin was added to normal human plasma diluted with a physiologically saline solution. A lima bean trypsin inhibitor was added thereto after a certain period to stop the kallikrein procluction reaction. Then the resulting kallikrein was determined by using a synthetic substrate (D-Pro-Phe-Arg-p-nitroaniline). The test substance was placed in the above system whereby the inhibitory action of the test substance against the production of kallikrein was determined.
In Table 1 the potency of the activity is given in terms of the concentration (IC50) at which the production of the plasma kallikrein was inhibited to an extent of 50%: […]
As to `CC(C)Cc1ccc(C(C)C(=O)O)cc1` (stereo not drawn) [Ibuprofen], the “IC50, concentration at which the production of the plasma kallikrein was inhibited to an extent of 50%” value is 700 micrograms/ml.

Consider `CC(C(=O)O)c1cccc(C(=O)c2ccccc2)c1` (stereo not drawn) [Ketoprofen], for which the “IC50, concentration at which the production of the plasma kallikrein was inhibited to an extent of 50%” value amounted to 400 micrograms/ml.

On to `CC(C)=CCN1CCC2(C)c3cc(O)ccc3CC1C2C` (stereo not drawn) [Pentazocine], for which the “IC50, concentration at which the production of the plasma kallikrein was inhibited to an extent of 50%” value is on record as 1,600 micrograms/ml.
